Data on 23 compounds can be found in patent US11685729B2, “C5a receptor modulators” (IDORSIA PHARMACEUTICALS LTD., priority 2018, dated 2023).

In the experiment the target is C5AR1 (Homo sapiens (Human), UniProt P21730). Put plainly: In vitro assay: PathHunter beta-arrestin antagonist assay in CHO-K1 C5AR1 beta-arrestin cell line, stimulated with C5a agonist. Conditions: read-out: C5aR IC50; CHO-K1 C5AR1 beta-arrestin cell line; 1-10 nM C5a agonist; geometric mean values.
Chain of C5AR1 (P21730 whole entry): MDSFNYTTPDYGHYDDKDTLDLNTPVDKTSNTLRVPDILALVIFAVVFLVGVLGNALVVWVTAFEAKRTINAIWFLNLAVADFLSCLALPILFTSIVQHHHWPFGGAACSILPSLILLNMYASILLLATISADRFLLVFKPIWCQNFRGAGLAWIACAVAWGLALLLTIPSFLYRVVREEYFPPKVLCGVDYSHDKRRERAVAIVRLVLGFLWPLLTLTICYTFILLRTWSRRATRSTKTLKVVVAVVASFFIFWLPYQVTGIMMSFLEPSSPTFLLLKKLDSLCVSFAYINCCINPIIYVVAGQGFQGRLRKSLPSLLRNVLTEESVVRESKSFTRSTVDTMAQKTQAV
Experimental: 5 μl Antagonist at 6-fold end concentration or DMSO control is added to assay medium and subsequently 5 μl 1-10 nM C5a agonist at 6 fold end concentration. Cells are centrifuged for 1 min at 1000 rpm and incubated for 1.5 hour in at 37° C. Plates are equilibrated at room temperature for several minutes before adding 12 μI/well Detection Reagent (PathHunter Detection Kit, DiscoverX, Cat #93-0001). Plates are centrifuged for 1 min at 1000 rpm and incubated for 45 minutes at RT before being measured on a Fluostar Optima, BMG Labtech. IC50 values are calculated from a serial dilution range of antagonist using inhouse software and given in nmol/l.
The calculated IC50 values may fluctuate depending on the daily cellular assay performance. […] Average IC50 values from several measurements are given as geometric mean values.
Consider `O=C1N(Cc2ccccc2C(F)(F)F)c2ccccc2CN1[C@H]1CCN(c2c(F)cccc2F)C1` [Example 15, 3-[(S)-1-(2,6-Difluoro-phenyl)-pyrrolidin-3-yl]-1-(2-trifluoromethyl-benzyl)-3,4-dihydro-1H-quinazolin-2-one], for which the IC50 was 847 nM.

In the case of `Cc1cccc(F)c1N1CCC(N2Cc3ccccc3N(Cc3ccccc3OC(F)(F)F)C2=O)CC1` [Example 74, 3-[1-(2-Fluoro-6-methyl-phenyl)-piperidin-4-yl]-1-(2-trifluoromethoxy-benzyl)-3,4-dihydro-1H-quinazolin-2-one], the concentration for half-maximal inhibition (IC50) worked out at 17 nM. For `COc1ccccc1CN1C(=O)N([C@@H]2CCN(c3c(C)cccc3F)C2)Cc2ccccc21` [Example 35, 3-[(R)-1-(2-Fluoro-6-methyl-phenyl)-pyrrolidin-3-yl]-1-(2-methoxy-benzyl)-3,4-dihydro-1H-quinazolin-2-one] the value was 43 nM; for `Cc1cccc(F)c1N1CCC(N2Cc3nccnc3N(Cc3ccccc3C(F)(F)F)C2=O)CC1` [Example 58, 3-[1-(2-Fluoro-6-methyl-phenyl)-piperidin-4-yl]-1-(2-trifluoromethyl-benzyl)-3,4-dihydro-1H-pteridin-2-one], 21 nM; for `Cc1cccc(C)c1N1CC[C@H](N2Cc3ccccc3N(Cc3ccccc3C(F)(F)F)C2=O)C1` [Example 14, 3-[(S)-1-(2,6-Dimethyl-phenyl)-pyrrolidin-3-yl]-1-(2-trifluoromethyl-benzyl)-3,4-dihydro-1H-quinazolin-2-one], 627 nM. For `CC(=O)OCCOc1ccccc1CN1C(=O)N(C2CCN(c3c(C)cccc3F)CC2)Cc2ccccc21` [Example 48, Acetic acid 2-(2-{3-[1-(2-fluoro-6-methyl-phenyl)-piperidin-4-yl]-2-oxo-3,4-dihydro-2H-quinazolin-1-ylmethyl}-phenoxy)-ethyl ester], the IC50 amounted to 298 nM. For `Cc1cccc(F)c1N1CCC(N2Cc3cncnc3N(Cc3ccccc3C(F)(F)F)C2=O)CC1` [Example 64, 3-[1-(2-Fluoro-6-methyl-phenyl)-piperidin-4-yl]-1-(2-trifluoromethyl-benzyl)-3,4-dihydro-1H-pyrimido[4,5-d]pyrimidin-2-one] the value was 782 nM; for `Cc1cccc(F)c1N1CCC(N2Cc3ccccc3N(Cc3ccccc3C(C)C)C2=O)CC1` [Example 57, 3-[1-(2-Fluoro-6-methyl-phenyl)-piperidin-4-yl]-1-(2-isopropyl-benzyl)-3,4-dihydro-1H-quinazolin-2-one], 24 nM.

For `Cc1cccc(F)c1N1CCC(N2Cc3ccccc3N(Cc3ccccc3Cl)C2=O)CC1` [Example 75, 1-(2-Chloro-benzyl)-3-[1-(2-fluoro-6-methyl-phenyl)-piperidin-4-yl]-3,4-dihydro-1H-quinazolin-2-one], the IC50 amounted to 55 nM. Consider `Cc1cccc(F)c1N1CCC(N2Cc3ccccc3N(Cc3nccnc3C(C)C)C2=O)CC1` [Example 62, 3-[1-(2-Fluoro-6-methyl-phenyl)-piperidin-4-yl]-1-(3-isopropyl-pyrazin-2-ylmethyl)-3,4-dihydro-1H-quinazolin-2-one], for which the IC50 is 38 nM. As for `COc1ccccc1N1CC[C@H](N2Cc3ccccc3N(Cc3ccccc3C(F)(F)F)C2=O)C1` [Example 16, 3-[(S)-1-(2-Methoxy-phenyl)-pyrrolidin-3-yl]-1-(2-trifluoromethyl-benzyl)-3,4-dihydro-1H-quinazolin-2-one], the IC50 was found to be 635 nM.

As for `N#Cc1cccc(F)c1N1CCC(N2Cc3ccccc3N(Cc3nccnc3C(F)(F)F)C2=O)CC1` [Example 38, 3-Fluoro-2-{4-[2-oxo-1-(3-trifluoromethyl-pyrazin-2-ylmethyl)-1,4-dihydro-2H-quinazolin-3-yl]-piperidin-1-yl}-benzonitrile], the half-inhibitory concentration (IC50) amounted to 211 nM. As to `COc1cccc2c1N(Cc1ccccc1C(F)(F)F)C(=O)N([C@@H]1CCN(c3c(C)cccc3C)C1)C2` [Example 9, 3-[(R)-1-(2,6-Dimethyl-phenyl)-pyrrolidin-3-yl]-8-methoxy-1-(2-trifluoromethyl-benzyl)-3,4-dihydro-1H-quinazolin-2-one], the concentration for half-maximal inhibition (IC50) stood at 25 nM. Take `COc1cccc(F)c1N1CC[C@@H](N2Cc3ccccc3N(Cc3ccccc3C(F)(F)F)C2=O)C1` [Example 21, 3-[(R)-1-(2-Fluoro-6-methoxy-phenyl)-pyrrolidin-3-yl]-1-(2-trifluoromethyl-benzyl)-3,4-dihydro-1H-quinazolin-2-one]: the IC50 turned out to be 37 nM. `COc1ccccc1C(C)N1C(=O)N(C2CCN(c3c(C)cccc3F)CC2)Cc2ccccc21` (centres unmarked) [Example 40, 3-[1-(2-Fluoro-6-methyl-phenyl)-piperidin-4-yl]-1-[1-(2-methoxy-phenyl)-ethyl]-3,4-dihydro-1H-quinazolin-2-one]: the IC50 amounted to 135 nM. In the case of `Cc1nc(C(F)(F)F)c(CN2C(=O)N(C3CCN(c4c(C)cccc4F)CC3)Cc3ccccc32)s1` [Example 83, 3-[1-(2-Fluoro-6-methyl-phenyl)-piperidin-4-yl]-1-(2-methyl-4-trifluoromethyl-thiazol-5-ylmethyl)-3,4-dihydro-1H-quinazolin-2-one], the IC50 was determined as 1320 nM. Consider `COc1ccccc1CN1C(=O)N(C2CCN(c3c(C)cccc3C)CC2)Cc2ccccc21` [Example 36, 3-[1-(2,6-Dimethyl-phenyl)-piperidin-4-yl]-1-(2-methoxy-benzyl)-3,4-dihydro-1H-quinazolin-2-one], for which the IC50 amounted to 199 nM. For `COc1cccc2c1N(Cc1ccccc1C(F)(F)F)C(=O)N([C@@H]1CCN(c3c(F)cccc3F)C1)C2` [Example 8, 3-[(R)-1-(2,6-Difluoro-phenyl)-pyrrolidin-3-yl]-8-methoxy-1-(2-trifluoromethyl-benzyl)-3,4-dihydro-1H-quinazolin-2-one] the value was 104 nM; for `Cn1nc(C2CC2)c(Cl)c1N1CCC(N2Cc3ccccc3N(Cc3ccccc3C(F)(F)F)C2=O)CC1` [Example 12, 3-[1-(4-Chloro-5-cyclopropyl-2-methyl-2H-pyrazol-3-yl)-piperidin-4-yl]-1-(2-trifluoromethyl-benzyl)-3,4-dihydro-1H-quinazolin-2-one], 679 nM. On to `O=C1N(Cc2ccccc2C(F)(F)F)c2ccccc2CN1C1CCN(c2c(F)cccc2C(F)(F)F)CC1` [Example 76, 3-[1-(2-Fluoro-6-trifluoromethyl-phenyl)-piperidin-4-yl]-1-(2-trifluoromethyl-benzyl)-3,4-dihydro-1H-quinazolin-2-one], for which the 50% inhibitory concentration (IC50) is 50 nM. In the case of `Cc1cccc(F)c1N1CCC(N2Cc3ccccc3N(Cc3ccccc3OCCO)C2=O)CC1` [Example 50, 3-[1-(2-Fluoro-6-methyl-phenyl)-piperidin-4-yl]-1-[2-(2-hydroxy-ethoxy)-benzyl]-3,4-dihydro-1H-quinazolin-2-one], the IC50 turned out to be 2560 nM. As to `Cc1cccc(F)c1N1CCC(N2C(=O)N(Cc3ccccc3C(F)(F)F)c3ccccc3C2C)CC1` (racemic) [Example 70, 3-[1-(2-Fluoro-6-methyl-phenyl)-piperidin-4-yl]-4-methyl-1-(2-trifluoromethyl-benzyl)-3,4-dihydro-1H-quinazolin-2-one], the IC50 is 205 nM. With `Cc1cccc(F)c1N1CCC(N2Cc3ccccc3N(Cc3nccnc3C(F)(F)F)C2=O)CC1` [Example 42, 3-[1-(2-Fluoro-6-methyl-phenyl)-piperidin-4-yl]-1-(3-trifluoromethyl-pyrazin-2-ylmethyl)-3,4-dihydro-1H-quinazolin-2-one], the IC50 was 63 nM.
